# Source: the supplement of paper PMC10307832
# Legend:
# Assay in all cases: relative viability (nuclei count vs DMSO), 5 days (fraction); higher = more cells survive
# [1] = compound: CCN1CCC(CC1)N2C=C(N=N2)CNC3=CC4=C(C(=CN=C4C(=C3)Cl)C#N)NC5=CC(=C(C=C5)F)Cl [KIN001-266] + COc1cccc2cc(-c3nc([C@H]4CC[C@H](C(=O)O)CC4)n4ncnc(N)c34)[nH]c12 [OSI-027] (partner 0.5 µM)
# In short: (§1)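 Relative viability divides the nuclei count in treated wells by that in vehicle wells. Lung cancer cell lines were seeded in 1536-well plates, dosed by pin tool the next day, and fixed and stained after 5 days in one step with final 0.05% Triton X-100, 1% formaldehyde and 1 ug/ml Hoechst. Dosing was a single drug or a fixed anchor-drug dose plus five library-drug doses (not always all listed) in √10 steps, and values are medians of duplicate plates imaged at 4×.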
# [2] = compound: CCN1CCC(CC1)N2C=C(N=N2)CNC3=CC4=C(C(=CN=C4C(=C3)Cl)C#N)NC5=CC(=C(C=C5)F)Cl [KIN001-266] + Nc1nc2[nH]cc(CCc3ccc(C(=O)N[C@@H](CCC(=O)O)C(=O)O)cc3)c2c(=O)[nH]1 [Pemetrexed] (partner 0.2 µM)
# In short: as §1
# [3] = compound: CCN1CCC(CC1)N2C=C(N=N2)CNC3=CC4=C(C(=CN=C4C(=C3)Cl)C#N)NC5=CC(=C(C=C5)F)Cl [KIN001-266] + COc1cc2c(Oc3ccc(NC(=O)C4(C(=O)Nc5ccc(F)cc5)CC4)cc3F)ccnc2cc1OCCCN1CCOCC1 [Foretinib] (partner 0.25 µM)
# In short: as §1
# [4] = compound: CCN1CCC(CC1)N2C=C(N=N2)CNC3=CC4=C(C(=CN=C4C(=C3)Cl)C#N)NC5=CC(=C(C=C5)F)Cl [KIN001-266] + NC(=O)Nc1cc(-c2cccc(F)c2)sc1C(=O)N[C@H]1CCCNC1 [AZD7762] (partner 0.2 µM)
# In short: as §1
cell line,measurement,setting,value
PC-3 [JPC-3],relative viability,[1]; first compound 0.08 µM,0.764
same,relative viability,[1]; first compound 0.253 µM,0.776
same,relative viability,[1]; first compound 0.8 µM,0.688
same,relative viability,[1]; first compound 2.53 µM,0.755
same,relative viability,[1]; first compound 8 µM,0.751
same,relative viability,[2]; first compound 0.08 µM,1.08
same,relative viability,[2]; first compound 0.253 µM,1.09
same,relative viability,[2]; first compound 0.8 µM,1.14
same,relative viability,[2]; first compound 2.53 µM,1.1
same,relative viability,[2]; first compound 8 µM,0.965
same,relative viability,[3]; first compound 0.08 µM,1.02
same,relative viability,[3]; first compound 0.253 µM,1.04
same,relative viability,[3]; first compound 0.8 µM,0.983
same,relative viability,[3]; first compound 2.53 µM,0.972
same,relative viability,[3]; first compound 8 µM,0.889
same,relative viability,[4]; first compound 0.08 µM,0.792
same,relative viability,[4]; first compound 0.253 µM,0.915
same,relative viability,[4]; first compound 0.8 µM,0.799
same,relative viability,[4]; first compound 2.53 µM,0.775
same,relative viability,[4]; first compound 8 µM,0.801
NCI-H1944,relative viability,[1]; first compound 0.08 µM,0.46
same,relative viability,[1]; first compound 0.253 µM,0.473
same,relative viability,[1]; first compound 0.8 µM,0.373
same,relative viability,[1]; first compound 2.53 µM,0.44
same,relative viability,[1]; first compound 8 µM,0.343
same,relative viability,[2]; first compound 0.08 µM,0.616
same,relative viability,[2]; first compound 0.253 µM,0.572
same,relative viability,[2]; first compound 0.8 µM,0.596
same,relative viability,[2]; first compound 2.53 µM,0.664
same,relative viability,[2]; first compound 8 µM,0.57
same,relative viability,[3]; first compound 0.08 µM,0.898
same,relative viability,[3]; first compound 0.253 µM,0.806
same,relative viability,[3]; first compound 0.8 µM,0.886
same,relative viability,[3]; first compound 2.53 µM,0.911
same,relative viability,[3]; first compound 8 µM,0.882
same,relative viability,[4]; first compound 0.08 µM,0.579
same,relative viability,[4]; first compound 0.253 µM,0.544
same,relative viability,[4]; first compound 0.8 µM,0.401
same,relative viability,[4]; first compound 2.53 µM,0.46
same,relative viability,[4]; first compound 8 µM,0.394
HARA,relative viability,[1]; first compound 0.08 µM,0.559
same,relative viability,[1]; first compound 0.253 µM,0.644
same,relative viability,[1]; first compound 0.8 µM,0.395
same,relative viability,[1]; first compound 2.53 µM,0.501
same,relative viability,[1]; first compound 8 µM,0.276
same,relative viability,[2]; first compound 0.08 µM,0.289
same,relative viability,[2]; first compound 0.253 µM,0.276
same,relative viability,[2]; first compound 0.8 µM,0.256
same,relative viability,[2]; first compound 2.53 µM,0.242
same,relative viability,[2]; first compound 8 µM,0.206
same,relative viability,[3]; first compound 0.08 µM,0.814
same,relative viability,[3]; first compound 0.253 µM,0.884
same,relative viability,[3]; first compound 0.8 µM,0.878
same,relative viability,[3]; first compound 2.53 µM,0.858
same,relative viability,[3]; first compound 8 µM,0.821
same,relative viability,[4]; first compound 0.08 µM,0.306
same,relative viability,[4]; first compound 0.253 µM,0.369
same,relative viability,[4]; first compound 0.8 µM,0.364
same,relative viability,[4]; first compound 2.53 µM,0.233
same,relative viability,[4]; first compound 8 µM,0.261
NCI-H2126,relative viability,[1]; first compound 0.08 µM,0.712
same,relative viability,[1]; first compound 0.253 µM,0.754
same,relative viability,[1]; first compound 0.8 µM,0.696
same,relative viability,[1]; first compound 2.53 µM,0.635
same,relative viability,[1]; first compound 8 µM,0.618
same,relative viability,[2]; first compound 0.08 µM,0.713
same,relative viability,[2]; first compound 0.253 µM,0.73
same,relative viability,[2]; first compound 0.8 µM,0.758
same,relative viability,[2]; first compound 2.53 µM,0.687
same,relative viability,[2]; first compound 8 µM,0.619
same,relative viability,[3]; first compound 0.08 µM,1.12
same,relative viability,[3]; first compound 0.253 µM,1.18
same,relative viability,[3]; first compound 0.8 µM,1.15
same,relative viability,[3]; first compound 2.53 µM,1.26
same,relative viability,[3]; first compound 8 µM,1.15
same,relative viability,[4]; first compound 0.08 µM,1.03
same,relative viability,[4]; first compound 0.253 µM,1.02
same,relative viability,[4]; first compound 0.8 µM,1
same,relative viability,[4]; first compound 2.53 µM,0.814
same,relative viability,[4]; first compound 8 µM,1.05
LXF-289,relative viability,[1]; first compound 0.08 µM,0.788
same,relative viability,[1]; first compound 0.253 µM,0.843
same,relative viability,[1]; first compound 0.8 µM,0.775
same,relative viability,[1]; first compound 2.53 µM,0.788
same,relative viability,[1]; first compound 8 µM,0.678
same,relative viability,[2]; first compound 0.08 µM,0.839
same,relative viability,[2]; first compound 0.253 µM,0.861
same,relative viability,[2]; first compound 0.8 µM,0.855
same,relative viability,[2]; first compound 2.53 µM,0.771
same,relative viability,[2]; first compound 8 µM,1.01
same,relative viability,[3]; first compound 0.08 µM,0.936
same,relative viability,[3]; first compound 0.253 µM,0.945
same,relative viability,[3]; first compound 0.8 µM,0.963
same,relative viability,[3]; first compound 2.53 µM,0.997
same,relative viability,[3]; first compound 8 µM,1.07
same,relative viability,[4]; first compound 0.08 µM,0.996
same,relative viability,[4]; first compound 0.253 µM,1.04
same,relative viability,[4]; first compound 0.8 µM,1.09
same,relative viability,[4]; first compound 2.53 µM,1.09
same,relative viability,[4]; first compound 8 µM,1.19
NCI-H460,relative viability,[1]; first compound 0.08 µM,0.623
same,relative viability,[1]; first compound 0.253 µM,0.667
same,relative viability,[1]; first compound 0.8 µM,0.781
same,relative viability,[1]; first compound 2.53 µM,0.605
same,relative viability,[1]; first compound 8 µM,0.574
same,relative viability,[2]; first compound 0.08 µM,0.06
same,relative viability,[2]; first compound 0.253 µM,0.0695
same,relative viability,[2]; first compound 0.8 µM,0.065
same,relative viability,[2]; first compound 2.53 µM,0.0681
same,relative viability,[2]; first compound 8 µM,0.0901
same,relative viability,[3]; first compound 0.08 µM,1.01
same,relative viability,[3]; first compound 0.253 µM,0.973
same,relative viability,[3]; first compound 0.8 µM,1.02
same,relative viability,[3]; first compound 2.53 µM,0.936
same,relative viability,[3]; first compound 8 µM,0.941
same,relative viability,[4]; first compound 0.08 µM,0.543
same,relative viability,[4]; first compound 0.253 µM,0.679
same,relative viability,[4]; first compound 0.8 µM,0.681
same,relative viability,[4]; first compound 2.53 µM,0.554
same,relative viability,[4]; first compound 8 µM,0.524
NCI-H1395,relative viability,[1]; first compound 0.08 µM,0.719
same,relative viability,[1]; first compound 0.253 µM,0.761
same,relative viability,[1]; first compound 0.8 µM,0.715
same,relative viability,[1]; first compound 2.53 µM,0.594
same,relative viability,[1]; first compound 8 µM,0.591
same,relative viability,[2]; first compound 0.08 µM,0.871
same,relative viability,[2]; first compound 0.253 µM,1.02
same,relative viability,[2]; first compound 0.8 µM,0.964
same,relative viability,[2]; first compound 2.53 µM,0.784
same,relative viability,[2]; first compound 8 µM,0.847
same,relative viability,[3]; first compound 0.08 µM,0.984
same,relative viability,[3]; first compound 0.253 µM,0.93
same,relative viability,[3]; first compound 0.8 µM,0.952
same,relative viability,[3]; first compound 2.53 µM,0.939
same,relative viability,[3]; first compound 8 µM,0.914
same,relative viability,[4]; first compound 0.08 µM,0.404
same,relative viability,[4]; first compound 0.253 µM,0.453
same,relative viability,[4]; first compound 0.8 µM,0.399
same,relative viability,[4]; first compound 2.53 µM,0.375
same,relative viability,[4]; first compound 8 µM,0.391
NCI-H2170,relative viability,[1]; first compound 0.08 µM,0.734
same,relative viability,[1]; first compound 0.253 µM,0.769
same,relative viability,[1]; first compound 0.8 µM,0.708
same,relative viability,[1]; first compound 2.53 µM,0.639
same,relative viability,[1]; first compound 8 µM,0.719
same,relative viability,[2]; first compound 0.08 µM,0.256
same,relative viability,[2]; first compound 0.253 µM,0.256
same,relative viability,[2]; first compound 0.8 µM,0.248
same,relative viability,[2]; first compound 2.53 µM,0.248
same,relative viability,[2]; first compound 8 µM,0.25
same,relative viability,[3]; first compound 0.08 µM,0.984
same,relative viability,[3]; first compound 0.253 µM,1.03
same,relative viability,[3]; first compound 0.8 µM,1.01
same,relative viability,[3]; first compound 2.53 µM,0.987
same,relative viability,[3]; first compound 8 µM,0.976
same,relative viability,[4]; first compound 0.08 µM,0.924
same,relative viability,[4]; first compound 0.253 µM,0.958
same,relative viability,[4]; first compound 0.8 µM,0.924
same,relative viability,[4]; first compound 2.53 µM,0.854
same,relative viability,[4]; first compound 8 µM,0.774
